The values below come from US9855268B2, “Triazolo[4,5-d]pyrimidine derivatives” (Merck Patent GmbH, priority 2013, dated 2018).

The structures appear in SMILES notation.

Assay [1] addresses T1, GCN2 (Homo sapiens, UniProt Q9P2K8). Briefly: GCN2 enzyme assay (TR-FRET Lanthascreen, GFP-eIF2alpha phosphorylation). It is filed as biochemical. As to conditions: 10 μM ATP, 80 nM GFP-eIF2a, 30 nM GCN2. In outline:
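Kinase reaction with 10 μM ATP and 80 nM GFP-labelled eIF2alpha substrate at room temperature, stopped with EDTA. Phospho-eIF2alpha detected by TR-FRET between antibody and GFP-substrate, excitation at 340 nm.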
Target sequence in this assay (Q9P2K8 whole entry, species assumed): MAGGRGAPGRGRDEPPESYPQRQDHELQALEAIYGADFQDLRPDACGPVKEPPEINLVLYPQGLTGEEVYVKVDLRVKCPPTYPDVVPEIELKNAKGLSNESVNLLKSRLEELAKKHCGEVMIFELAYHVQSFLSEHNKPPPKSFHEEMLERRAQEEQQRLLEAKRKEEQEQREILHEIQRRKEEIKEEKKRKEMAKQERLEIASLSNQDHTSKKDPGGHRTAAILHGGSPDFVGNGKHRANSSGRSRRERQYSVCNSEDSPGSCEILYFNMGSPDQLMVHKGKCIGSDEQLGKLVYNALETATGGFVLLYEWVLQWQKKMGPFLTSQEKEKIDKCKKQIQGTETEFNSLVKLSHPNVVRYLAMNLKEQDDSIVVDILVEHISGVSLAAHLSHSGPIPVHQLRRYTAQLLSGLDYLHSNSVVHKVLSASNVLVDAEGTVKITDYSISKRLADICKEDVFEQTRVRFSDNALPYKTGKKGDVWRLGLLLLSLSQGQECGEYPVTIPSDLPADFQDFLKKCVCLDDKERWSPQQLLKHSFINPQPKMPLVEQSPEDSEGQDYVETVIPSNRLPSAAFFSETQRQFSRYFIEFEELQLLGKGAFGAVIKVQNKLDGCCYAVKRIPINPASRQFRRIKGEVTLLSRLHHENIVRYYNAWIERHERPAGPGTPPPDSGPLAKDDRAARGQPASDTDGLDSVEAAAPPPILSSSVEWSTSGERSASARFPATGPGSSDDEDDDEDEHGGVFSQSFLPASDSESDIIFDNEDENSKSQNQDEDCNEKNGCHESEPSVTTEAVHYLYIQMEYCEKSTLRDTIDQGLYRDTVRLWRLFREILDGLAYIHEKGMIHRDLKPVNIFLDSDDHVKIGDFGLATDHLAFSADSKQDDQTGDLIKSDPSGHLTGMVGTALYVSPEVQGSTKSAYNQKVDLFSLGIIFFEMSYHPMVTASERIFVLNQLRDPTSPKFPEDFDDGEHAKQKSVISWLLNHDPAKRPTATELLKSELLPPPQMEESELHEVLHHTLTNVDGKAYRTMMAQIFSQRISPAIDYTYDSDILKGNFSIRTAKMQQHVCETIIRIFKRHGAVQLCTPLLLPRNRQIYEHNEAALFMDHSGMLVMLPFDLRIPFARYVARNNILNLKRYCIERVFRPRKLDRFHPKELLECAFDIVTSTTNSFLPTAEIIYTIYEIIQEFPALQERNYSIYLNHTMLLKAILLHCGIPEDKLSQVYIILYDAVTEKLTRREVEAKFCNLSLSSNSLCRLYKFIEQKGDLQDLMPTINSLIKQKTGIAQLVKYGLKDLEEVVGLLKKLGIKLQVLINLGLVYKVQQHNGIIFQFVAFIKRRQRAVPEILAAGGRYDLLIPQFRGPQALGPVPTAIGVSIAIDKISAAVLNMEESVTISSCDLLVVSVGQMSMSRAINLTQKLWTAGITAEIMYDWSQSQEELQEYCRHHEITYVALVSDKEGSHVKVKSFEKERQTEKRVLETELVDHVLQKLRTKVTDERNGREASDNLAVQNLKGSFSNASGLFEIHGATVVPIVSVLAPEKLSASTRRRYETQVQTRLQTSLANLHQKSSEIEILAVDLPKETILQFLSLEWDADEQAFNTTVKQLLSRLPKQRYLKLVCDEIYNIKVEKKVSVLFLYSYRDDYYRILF

For assay [2], the target named is T1, GCN2. Briefly: Cellular assay of GCN2 activity (phospho-eIF2alpha immunocytochemistry after tryptophanol). It is filed as cell-based. On the set-up: endogenous in cells; host or cells: U2OS. As to conditions: Human U2OS cells, 2 h compound, 600 μM tryptophanol 30 min. On the procedure:
Cellular Assay for the Determination of Compound Activities
Human U2OS cells (2000 cells/well) are seeded into 384-well plates and incubated for 20 hours.
The next day, the cells are treated with the test compounds and incubated for 2 hours. Then, tryptophanol, at a final concentration of 600 μM, is added to the cells and those are incubated for 30 minutes.
The analysis of cellular GCN2 activities is done by immunocytochemistry.
Briefly, cells are fixated on the well surfaces by formaldehyde and permeabilised with Triton X-100.
The analysis and quantification of phosphorylated GCN2 is done by scanning the plates in the Acumen Explorer system (TTPLabtech). The obtained data are normalised against the untreated control wells (DMSO only) and expressed as % effect values. The determination of IC50 values is done by using the Graph Pad Prism software.
Target sequence in this assay (Q9P2K8 whole entry): as the sequence (Q9P2K8 whole entry, species assumed) above

Assay [3] concerns the target GSK3α(h) (Homo sapiens, UniProt P49840). Briefly: GSK3α radiometric kinase assay (33P-ATP, phospho GS2 peptide). It is filed as biochemical. As to conditions: read-out: IC50 GSK3α (enzyme assay). On the procedure:
GSK3α(h) is incubated with 8 mM MOPS pH 7,0, 0,2 mM EDTA, 20 μM
[…](p)EDEEE (phosphor GS2 peptide), 10 mM Mg-acetate and [gamma-33P-ATP](specific activity approx. 500 cpm/Pmol, concentration as required). The reaction is initiated by the addition of the MgATP. After incubation for 40 minutes at the room temperature, the Reaction is stopped by the addition of 3% phosphoric acid solution. 10 μL of reaction is then spotted onto a P30 filtermat and washed three times for 5 minutes in 50 mM phosphoric acid and once in methanol prior to drying and scintillation counting.

GSK3α(h), sequence (P49840 whole entry): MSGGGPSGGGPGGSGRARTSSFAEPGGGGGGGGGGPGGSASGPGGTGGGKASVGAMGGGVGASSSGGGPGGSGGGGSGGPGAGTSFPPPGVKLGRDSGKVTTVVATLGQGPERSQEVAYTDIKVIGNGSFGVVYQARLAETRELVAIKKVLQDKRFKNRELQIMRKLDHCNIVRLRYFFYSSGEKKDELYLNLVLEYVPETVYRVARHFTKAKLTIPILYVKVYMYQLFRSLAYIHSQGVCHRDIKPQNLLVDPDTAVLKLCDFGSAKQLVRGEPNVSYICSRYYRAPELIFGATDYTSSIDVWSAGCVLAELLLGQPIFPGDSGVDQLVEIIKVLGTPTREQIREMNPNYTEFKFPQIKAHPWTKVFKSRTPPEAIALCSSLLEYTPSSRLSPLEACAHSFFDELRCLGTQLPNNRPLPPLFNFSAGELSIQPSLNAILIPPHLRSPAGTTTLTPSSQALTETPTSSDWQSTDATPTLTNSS

Turning to `N[C@H]1CC[C@H](Nc2ncc3nnn(-c4ccc(N5CC[C@@H](O)C5)cc4)c3n2)CC1` [A70, (R)-1-{4-[5-((trans)-4-amino-cyclohexylamino)-[1,2,3]triazolo[4,5-d]pyrimidin-3-yl]-phenyl}-pyrrolidin-3-ol], the results for the IC50 in assay [1] and in assay [2] were less than 1000 nM and 5000 to 10000 nM, respectively.
The matching figures for `COc1ccc(-n2nnc3cnc(NC4CCN(C(=O)CCN(C)C)CC4)nc32)cc1` [A49, 3-dimethylamino-1-{4-[3-(4-methoxy-phenyl)-3H-[1,2,3]triazolo[4,5-d]pyrimidin-5-ylamino]-piperidin-1-yl}-propan-1-one]: less than 1000 nM and 5000 to 10000 nM.
The corresponding values for `NC(=O)[C@@H]1CC[C@@H](Nc2ncc3nnn(-c4ccc(OC5CCOCC5)cc4)c3n2)C1` [A168, (1R,3R)-3-{3-[4-(tetrahydro-pyran-4-yloxy)-phenyl]-3H-[1,2,3]triazolo[4,5-d]-pyrimidin-5-ylamino}-cyclopentanecarboxylic acid amide] are less than 1000 nM and 1000 to 5000 nM.
The matching figures for `COCC(COC)Oc1ccc(-n2nnc3cnc(N[C@@H]4CC[C@@H](C(N)=O)C4)nc32)cc1` [A167, (1R,3R)-3-{3-[4-(2-methoxy-1-methoxymethyl-ethoxy)-phenyl]-3H-[1,2,3]triazolo[4,5-d]pyrimidin-5-ylamino}-cyclopentanecarboxylic acid amide]: less than 1000 nM and 1000 to 5000 nM.
For `Cn1cc2ccc(-n3nnc4cnc(N[C@@H]5CC[C@@H](C(N)=O)C5)nc43)cc2n1` [A185, (1R,3R)-3-[3-(2-methyl-2H-indazol-6-yl)-3H-[1,2,3]triazolo[4,5-d]pyrimidin-5-ylamino]-cyclopentanecarboxylic acid amide], the values for the IC50 in assay [1] and in assay [2] were less than 1000 nM and 5000 to 10000 nM, respectively.
For `Cn1cc(CNc2ncc3nnn(-c4ccc5ncccc5c4)c3n2)cn1` [B1, (1-methyl-1H-pyrazol-4-ylmethyl)-(3-quinolin-6-yl-3H-[1,2,3]triazolo[4,5-d]pyrimidin-5-yl)-amine], the IC50 is less than 1000 nM in assay [1] and 5000 to 10000 nM in assay [2].
The corresponding values for `NC(=O)[C@@H]1CC[C@@H](Nc2ncc3nnn(-c4ccc(I)cc4)c3n2)C1` [A170, (1R,3R)-3-[3-(4-iodo-phenyl)-3H-[1,2,3]triazolo[4,5-d]pyrimidin-5-ylamino]-cyclopentanecarboxylic acid amide] are less than 1000 nM and 1000 to 5000 nM.
The corresponding values for `OCCn1cc(-c2ccc(-n3nnc4cnc(N[C@H]5CC[C@H](O)C5)nc43)cc2)cn1` (relative stereo) [A57, trans-3-(3-{4-[1-(2-hydroxy-ethyl)-1H-pyrazol-4-yl]-phenyl}-3H-[1,2,3]triazolo[4,5-d]pyrimidin-5-ylamino)-cyclopentanol] are less than 1000 nM and 1000 to 5000 nM.
The corresponding values for `Cn1cc2cc(-n3nnc4cnc(N[C@@H]5CC[C@@H](C(N)=O)C5)nc43)ccc2n1` [A186, (1R,3R)-3-[3-(2-methyl-2H-indazol-5-yl)-3H-[1,2,3]triazolo[4,5-d]pyrimidin-5-ylamino]-cyclopentanecarboxylic acid amide] are less than 1000 nM and 1000 to 5000 nM.
For the compound `Cn1cc(-c2ccc(-n3nnc4cnc(N[C@@H]5CCNC5)nc43)cc2)cn1` [A116, {3-[4-(1-methyl-1H-pyrazol-4-yl)-phenyl]-3H-[1,2,3]triazolo[4,5-d]pyrimidin-5-yl}-(R)-pyrrolidin-3-yl-amine], the IC50 is less than 1000 nM in assay [1] and 5000 to 10000 nM in assay [2].
The corresponding values for `N[C@H]1CC[C@H](Nc2ncc3nnn(-c4ccc(N5CC[C@H](O)C5)cc4)c3n2)CC1` [A128, (S)-1-{4-[5-(4-amino-cyclohexylamino)-[1,2,3]triazolo[4,5-d]pyrimidin-3-yl]-phenyl}-pyrrolidin-3-ol] are less than 1000 nM and 5000 to 10000 nM.
The corresponding values for `Cc1ccc2cc(-n3nnc4cnc(N[C@@H]5CC[C@@H](O)C5)nc43)ccc2n1` [A208, (1R,3R)-3-[3-(2-methyl-quinolin-6-yl)-3H-[1,2,3]triazolo[4,5-d]pyrimidin-5-ylamino]-cyclopentanol] are less than 1000 nM and 1000 to 5000 nM.
In the case of `O[C@@H]1CC[C@@H](Nc2ncc3nnn(-c4ccc5nsnc5c4)c3n2)C1` (relative stereo) [A200, (trans)-3-(3-benzo[1,2,5]thiadiazol-5-yl-3H-[1,2,3]triazolo[4,5-d]pyrimidin-5-ylamino)-cyclopentanol], the IC50 in assay [1] and in assay [3] was less than 1000 nM throughout.
`COc1ccc(-n2nnc3cnc(NC(C)CC(N)=O)nc32)cc1` (stereo not shown) [A144, 3-[3-(4-methoxy-phenyl)-3H-[1,2,3]triazolo[4,5-d]pyrimidin-5-ylamino]-butyramide]: the IC50 in assay [1] and in assay [3] was less than 1000 nM in each case.
Turning to `COc1ccc(-n2nnc3cnc(N[C@H]4CC[C@@H](S(C)(=O)=O)C4)nc32)cc1` (relative stereo) [A264, ((cis)-3-methanesulfonyl-cyclopentyl)-[3-(4-methoxy-phenyl)-3H-[1,2,3]triazolo[4,5-d]pyrimidin-5-yl]-amine], the half-maximal inhibitory concentration (IC50) in assay [1] and in assay [3] was less than 1000 nM each time.
For `COc1ccc(-n2nnc3cnc(N[C@@H]4CC[C@@H](C(N)=O)C4)nc32)cn1` [A173, (1R,3R)-3-[3-(6-methoxy-pyridin-3-yl)-3H-[1,2,3]triazolo[4,5-d]pyrimidin-5-ylamino]-cyclopentanecarboxylic acid amide], the IC50 in assay [1] and in assay [3] was less than 1000 nM each time.
For the compound `COCCn1cc(-c2ccc(-n3nnc4cnc(N[C@H]5CC[C@H](N)CC5)nc43)cc2)cn1` [A52, N-(3-{4-[1-(2-methoxy-ethyl)-1H-pyrazol-4-yl]-phenyl}-3H-[1,2,3]triazolo[4,5-d]-pyrimidin-5-yl)-cyclohexane-1,4-diamine], the IC50 in assay [1] was less than 1000 nM; in assay [2] it was 1000 to 5000 nM.
As for `Cc1nc2ccc(-n3nnc4cnc(N[C@@H]5CC[C@@H](O)C5)nc43)cc2o1` (relative stereo) [A199], the IC50 in assay [1] and in assay [3] was less than 1000 nM in each case.
For `Cn1cc(-c2ccc(-n3nnc4cnc(N[C@H]5CC[C@H](O)C5)nc43)cc2)cn1` (relative stereo) [A51, trans-3-{3-[4-(1-methyl-1H-pyrazol-4-yl)-phenyl]-3H-[1,2,3]triazolo[4,5-d]pyrimidin-5-ylamino}-cyclopentanol], the IC50 was less than 1000 nM in assay [1] and 1000 to 5000 nM in assay [2].
The corresponding values for `COc1ccc(-n2nnc3cnc(NC4CC4)nc32)cc1` [A4, cyclopropyl-[3-(4-methoxy-phenyl)-3H-[1,2,3]triazolo[4,5-d]pyrimidin-5-yl]-amine] are less than 1000 nM and less than 1000 nM.
With `COc1ccc(-n2nnc3cnc(N[C@H]4CC[C@H](C(N)=O)CC4)nc32)cc1` [A143, 4-[3-(4-methoxy-phenyl)-3H-[1,2,3]triazolo[4,5-d]pyrimidin-5-ylamino]-cyclohexanecarboxylic acid amide], the IC50 in assay [1] and in assay [3] was less than 1000 nM each time.
For the compound `Cc1ccc2cc(-n3nnc4cnc(N[C@@H]5CC[C@H](C(N)=O)C5)nc43)ccc2n1` [A191, (1S,3R)-3-[3-(2-methyl-quinolin-6-yl)-3H-[1,2,3]triazolo[4,5-d]pyrimidin-5-ylamino]-cyclopentanecarboxylic acid amide], the IC50 in assay [1] is less than 1000 nM; in assay [2], 1000 to 5000 nM.
Take `O[C@@H]1CC[C@@H](Nc2ncc3nnn(-c4ccc(N5CCCC5)cc4)c3n2)C1` (relative stereo) [A198, (trans)-3-[3-(4-pyrrolidin-1-yl-phenyl)-3H-[1,2,3]triazolo[4,5-d]pyrimidin-5-ylamino]-cyclopentanol]: the IC50 in assay [1] and in assay [3] was less than 1000 nM in each case.
In the case of `N[C@H]1CC[C@H](Nc2ncc3nnn(-c4ccc(-c5cnn(CCO)c5)cc4)c3n2)CC1` [A256, 2-(4-{4-[5-(trans-4-amino-cyclohexylamino)-[1,2,3]triazolo[4,5-d]pyrimidin-3-yl]-phenyl}-pyrazol-1-yl)-ethanol], the IC50 in assay [1] is less than 1000 nM; in assay [2] it was 5000 to 10000 nM.
`NC(=O)[C@@H]1CC[C@@H](Nc2ncc3nnn(-c4ccc5nsnc5c4)c3n2)C1` [A174, (1R,3R)-3-(3-benzo[1,2,5]thiadiazol-5-yl-3H-[1,2,3]triazolo[4,5-d]pyrimidin-5-ylamino)-cyclopentanecarboxylic acid amide]: the IC50 in assay [1] and in assay [3] was less than 1000 nM in each case.
Consider `COc1ccc(-n2nnc3cnc(N[C@@H]4CC[C@@H](C(N)=O)C4)nc32)nc1` [A175, (1R,3R)-3-[3-(5-methoxy-pyridin-2-yl)-3H-[1,2,3]triazolo[4,5-d]pyrimidin-5-ylamino]-cyclopentanecarboxylic acid amide], for which the 50% inhibitory concentration (IC50) in assay [1] and in assay [3] was less than 1000 nM in each case.
